Results published in patent US20240122930A1, “INTEGRIN INHIBITORS AND USES THEREOF IN COMBINATION WITH OTHER AGENTS” (Pliant Therapeutics, Inc., priority 2022, published 2024).
Entries after “also recorded” stand apart in the source; their conditions may differ.

Columns and labels:
[1] = test system: participants with idiopathic pulmonary fibrosis (IPF); conditions: FIG. 26, histograms from left to right; from USPI or literature; cited from earlier work
[2] = target: recombinant human integrin αVβ6 (Homo sapiens, UniProt P06756+P18564); test: Solid phase integrin αVβ6 binding assay; conditions: TGFβ1 LAP, values presented in four ranges, read-out: αvβ6 Inhibition IC50 (nM)-range
Chain of recombinant human integrin αVβ6 (P06756 31-992 limits assumed): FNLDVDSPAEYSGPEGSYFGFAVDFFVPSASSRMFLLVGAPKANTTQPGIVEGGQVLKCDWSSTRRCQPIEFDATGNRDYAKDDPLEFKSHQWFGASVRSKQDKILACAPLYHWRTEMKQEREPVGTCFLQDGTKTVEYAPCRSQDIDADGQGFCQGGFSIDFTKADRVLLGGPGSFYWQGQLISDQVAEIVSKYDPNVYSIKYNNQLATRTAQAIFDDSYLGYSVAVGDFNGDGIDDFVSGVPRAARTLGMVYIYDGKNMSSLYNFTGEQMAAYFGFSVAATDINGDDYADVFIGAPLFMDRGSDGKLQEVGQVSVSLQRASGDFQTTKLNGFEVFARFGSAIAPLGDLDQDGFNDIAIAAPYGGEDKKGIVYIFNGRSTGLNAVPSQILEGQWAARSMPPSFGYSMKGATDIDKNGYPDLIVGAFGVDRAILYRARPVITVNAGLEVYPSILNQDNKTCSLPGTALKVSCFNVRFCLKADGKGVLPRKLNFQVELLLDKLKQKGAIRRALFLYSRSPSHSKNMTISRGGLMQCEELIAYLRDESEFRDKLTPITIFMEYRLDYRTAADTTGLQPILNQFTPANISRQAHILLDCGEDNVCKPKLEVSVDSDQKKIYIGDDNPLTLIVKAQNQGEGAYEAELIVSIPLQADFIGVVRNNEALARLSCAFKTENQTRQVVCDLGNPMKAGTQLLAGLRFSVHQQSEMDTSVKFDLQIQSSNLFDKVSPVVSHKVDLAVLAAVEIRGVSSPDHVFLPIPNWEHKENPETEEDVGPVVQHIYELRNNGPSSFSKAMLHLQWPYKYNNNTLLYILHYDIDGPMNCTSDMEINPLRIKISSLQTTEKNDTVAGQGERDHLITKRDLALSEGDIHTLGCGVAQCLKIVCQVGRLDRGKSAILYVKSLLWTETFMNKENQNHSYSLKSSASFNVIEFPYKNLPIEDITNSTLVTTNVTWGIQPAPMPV
Chain of recombinant human integrin αVβ6 (P18564 22-707 limits assumed): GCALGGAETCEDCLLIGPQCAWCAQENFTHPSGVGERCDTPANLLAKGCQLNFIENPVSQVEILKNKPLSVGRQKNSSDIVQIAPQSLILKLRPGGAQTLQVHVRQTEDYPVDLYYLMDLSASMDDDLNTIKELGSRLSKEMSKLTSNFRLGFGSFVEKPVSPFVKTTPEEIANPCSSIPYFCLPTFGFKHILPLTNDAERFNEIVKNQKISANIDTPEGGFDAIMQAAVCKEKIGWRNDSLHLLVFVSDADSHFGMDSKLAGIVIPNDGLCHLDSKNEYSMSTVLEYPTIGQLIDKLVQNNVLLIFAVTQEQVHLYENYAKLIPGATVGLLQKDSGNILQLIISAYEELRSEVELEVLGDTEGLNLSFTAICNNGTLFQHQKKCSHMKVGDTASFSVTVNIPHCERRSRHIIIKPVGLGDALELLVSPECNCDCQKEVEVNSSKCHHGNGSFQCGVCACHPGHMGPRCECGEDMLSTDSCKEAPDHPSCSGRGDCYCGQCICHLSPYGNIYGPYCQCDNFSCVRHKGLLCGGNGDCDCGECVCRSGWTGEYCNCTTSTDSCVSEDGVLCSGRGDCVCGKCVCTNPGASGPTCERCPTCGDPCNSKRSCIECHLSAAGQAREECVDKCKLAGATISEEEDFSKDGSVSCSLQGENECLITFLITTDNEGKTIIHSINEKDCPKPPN
Description: Microplates were coated with recombinant human integrin αVβ6 (2 μg/mL) in PBS (100 μL/well 250 C, overnight). The coating solution was removed, washed with wash buffer (0.05% Tween 20; 0.5 mM MnCl2; in 1×TBS). The plate was blocked with 200 μL/well of Block Buffer (1% BSA; 5% sucrose; 0.5 mM MnCl2; in 1×TBS) at 370 C for 2 h. Dilutions of testing compounds and recombinant TGFβ1 LAP (0.67 μg/mL) in binding buffer (0.05% BSA; 2.5% sucrose; 0.5 mM MnCl2; in 1×TBS) were added. The plate was incubated for 2 hours at 250 C, washed, and incubated for 1 hour with Biotin-Anti-hLAP. Bound antibody was detected by peroxidase-conjugated streptavidin. The IC50 values for testing compounds were calculated by a four-parameter logistic regression.
The compounds tested were compound samples prepared according to procedures described in the Synthetic Examples section, with the stereochemical purity as indicated in the Examples.
A third series of exemplary compounds was selected for testing in the solid phase integrin αVβ6 binding assay. The compounds tested were compound samples prepared according to procedures described in the Synthetic Examples section, with the stereochemical purity as indicated in the Examples. […] Bound antibody was detected by peroxidase-conjugated streptavidin. The IC50 values for testing compounds were calculated by a four-parameter logistic regression.

lung Col1a1 expression [3] = test: Precision cut lung slices, chronic bleomycin exposure, versus and with nintedanib and pirfenidone; type: cell-based, mice (C57BL/6); conditions: chronic bleomycin PCLS, 7 days culture, single agents
Description: Mice (C57BL/6) were administered 3 U/kg of bleomycin (Teva Pharmaceuticals; North Wales, PA) on Day 0 and 1 U/kg of bleomycin on days 14, 28, 42 and 56 via oropharyngeal aspiration while under anesthesia. At day 70, 14 days following the final bleomycin insult, precision cut lung slices were obtained. […] The lobes were then subjected to precision slicing to obtain samples for culture using a microtome (Compresstome VF-300-OZ, Precisionary; Greenville, NC). Individual slices were distributed in a multiwell culture plate and cultured for 7 days under control (DMSO) and test compound conditions. The viability of the slices over the course of culturing was confirmed by WST-1 assay of mitochondrial activity. During the culture period, slices in the control group were treated with DMSO and slices in the test group were treated with a DMSO solution of one of: […]

COL1A1 expression = test: Precision cut lung slices from human IPF explants, COL1A1 expression; type: cell-based; conditions: human IPF PCLS; for expression of COL1A1: 7 days, treatment alone: nintedanib 75 nM, pirfenidone 50 μM
Text: Explanted lung tissue was obtained from human IPF subjects and inflated with agarose as described in the preceding examples. Biopsy cores were obtained from the agarose-inflated lung tissue. The biopsy cores were subjected to precision slicing to obtain several hundred μm thick. Individual slices were distributed in a multiwell culture plate and cultured for […] under control (DMSO) and test compound conditions. The viability of the slices over the course of culturing was confirmed by WST-1 assay of mitochondrial activity.
PCLS from 5-7 idiopathic pulmonary fibrosis (IPF) lung tissue samples were cultured for seven days with one of: DMSO; Compound 5 at 200 nM; nintedanib at 75 nM; pirfenidone at 50 μM; a combination of Compound 5 at 200 nM and nintedanib at 75 nM; a combination of Compound 5 at 200 nM and pirfenidone at 50 μM; or an ALK5 inhibitor at 1 μM. […] FIG. 6D is a bar graph showing relative expression of COL1A1 in precision cut lung slices (PCLS) from idiopathic pulmonary fibrosis (IPF) lung tissue upon exposure to Compound 5, clinical standard of care compounds nintedanib (Nin) and pirfenidone (Pirf), and an ALK5 inhibitor, all versus DMSO control.
PCLS from a single IPF lung tissue sample were cultured for seven days with Compound 5 at concentrations of 200 pM, 2 nM, 60 nM, 200 nM, and 1 μM, along with 0.1% DMSO control and an ALK5 inhibitor at 1 μM. […] COL1A1 expression is also graphed for the PCLS in the presence of 0.1% DMSO control, and an ALK5 inhibitor at 1 μM.

[4] = test system: explanted human lung tissue from patients with idiopathic pulmonary fibrosis; test: Fibrosis-related gene expression (nCounter Fibrosis Panel) in precision cut lung slices; type: cell-based
Text: Briefly, tissue samples from patients with IPF were acquired at the time of lung transplantation. […] Treated slices were lysed in mRNA-compatible buffer for gene expression analysis. For this study, the lysate from n=6 slices per treatment per lung were pooled for analysis using the nCounter Fibrosis Panel (Nanostring) on the nCounter Max analyzer (Nanostring). This commercially available panel of 770 genes includes genes related to initial tissue damage response, chronic inflammation, proliferation of pro-fibrotic cells, and tissue modification leading to fibrotic disease. Technical quality control and normalization of raw Nanostring mRNA count data was performed using an R framework developed by Bhattacharya et al. (Bhattacharya A. et al., Brief Bioinform. 2021 May 20; 22(3):bbaa163; herein incorporated by reference in its entirety). The R packages limma (see URL www.bioconductor.org/packages/release/bioc/html/limma.html, which is incorporated herein by reference in its entirety) and voom (Law, C.

[5] = test system: Type I Collagen gene Col1a1 expression; test: Precision cut lung slices, acute bleomycin exposure, Col1a1 expression; type: cell-based, mice (C57BL/6); conditions: acute bleomycin PCLS, 3 days culture; integrin inhibitors at IC50 for TGF-beta activation, pan-αV and ALK5 inhibitors at 10× IC50
Description: Mice (C57BL/6) were administered 3 U/kg of bleomycin (Teva Pharmaceuticals; North Wales, PA) on day 0 via oropharyngeal aspiration while under anesthesia. On day 14, precision cut lung slices were obtained. Following euthanization, 2% low gelling temp agarose was injected into the mouse lungs via the trachea. […] The lobes were then subjected to precision slicing to obtain samples for culture using a microtome (Compresstome VF-300-OZ, Precisionary; Greenville, NC). Individual slices were distributed in a multiwell culture plate and cultured for 3 days under control (DMSO) and test compound conditions. The viability of the slices over the course of culturing was confirmed by WST-1 assay of mitochondrial activity.

lung Col1a1 expression [6] = test: Precision cut lung slices, chronic bleomycin exposure, Col1a1 expression; type: cell-based, mice (C57BL/6); conditions: chronic bleomycin PCLS, 7 days culture
Description: Mice (C57BL/6) were administered 3 U/kg of bleomycin (Teva Pharmaceuticals; North Wales, PA) on Day 0 and 1 U/kg of bleomycin on days 14, 28, 42 and 56 via oropharyngeal aspiration while under anesthesia. At day 70, 14 days after the final bleomycin insult, precision cut lung slices were obtained. […] The lobes were then subjected to precision slicing to obtain samples for culture using a microtome (Compresstome VF-300-OZ, Precisionary; Greenville, NC). Individual slices were distributed in a multiwell culture plate and cultured for 7 days under control (DMSO) and test compound conditions. The viability of the slices over the course of culturing was confirmed by WST-1 assay of mitochondrial activity. […] Compound 5; and the small molecule ALK5 inhibitor. […] Compound 5 was run at approximate IC50 for inhibition of TGF-beta activation by αVβ6.

[7] = single treatment, adj. p-value <0.05

Compound: [O-][S+]1CCc2nc(N3CCC(c4ncc(Cl)cn4)CC3)nc(NC3(CO)CCC3)c21 (stereo not shown) [BI 1015550]
- % Incidence of Diarrhea in IPF Clinical Trials [1]: 17%

Compound: COCCN(CCCCc1ccc2c(n1)NCCC2)CCC(Nc1ncnc2cnccc12)C(=O)O (stereo not shown) [Compound 17, 4-((2-methoxyethyl)(4-(5,6,7,8-tetrahydro-1,8-naphthyridin-2-yl)butyl)amino)-2-(pyrido[3,4-d]pyrimidin-4-ylamino)butanoic acid]
- IC50 [2]: < 50 nM

Compound: COC(=O)c1ccc2c(c1)NC(=O)/C2=C(\Nc1ccc(N(C)C(=O)CN2CCN(C)CC2)cc1)c1ccccc1 [nintedanib, 3-Z-[1-(4-(N-((4-methyl-piperazin-1-yl)-methylcarbonyl)-N-methyl-amino)-anilino)-1-phenyl-methylene]-6-methoxycarbonyl-2-indolinone, reference compound]
- lung Col1a1 expression vs DMSO vehicle control slices (lung Col1a1 expression [3]): slight increase
- expression of COL1A1 (COL1A1 expression): did not significantly reduce
- Genes up-regulated, Venn region G (FIG. 24) ([4]; IPF precision cut lung slices, 7 days, only altered by nintedanib in the absence of Compound 5): ACTA2 and CCL19 and COL6A5 and ELN and IGF1 and PYGM
- logFC CYP2J2 [4, 7]: 1.025

Compound: Cc1ccc(=O)n(-c2ccccc2)c1 [pirfenidone, 5-methyl-1phenyl-2-1(H)-pyridone, reference compound]
- lung Col1a1 expression vs DMSO vehicle control slices (lung Col1a1 expression [3]): slight increase
- expression of COL1A1 (COL1A1 expression): did not significantly reduce
- Genes Down-regulated with Compound 5 and Pirfenidone Alone or in Combination, region F ([4]; FIG. 24 Venn region F: altered by Compound 5 or pirfenidone alone, but not by Compound 5 in combination with pirfenidone): CXCR4; also recorded: PECAM1
- Genes Up-regulated with Compound 5 and Pirfenidone Alone or in Combination, region G ([4]; FIG. 24 Venn region G: only altered by pirfenidone in the absence of Compound 5): COL7A1 and MMP7 and PTGS2
- logFC KNG1 [4, 7]: −1.1

Compound: CC(C)(C)c1cc(Br)cc([C@H](CC(=O)O)NC(=O)CNC(=O)c2cc(O)cc(NC3=NCC(O)CN3)c2)c1 (stereo partly drawn) [second pan-αV small molecule inhibitor, (3S)—N-[3-hydroxy-5-[(1,4,5,6-tetrahydro-5-hydroxy-2-pyrimidinyl)amino]benzoyl]glycyl-3-[3-bromo-5-(1,1-dimethylethyl)phenyl]-β-alanine]
- Type I Collagen gene Col1a1 expression, normalized to DMSO control slices [5]: decreased Type I Collagen gene Col1a1 expression comparably

Compound: Cc1cccc(-c2n[nH]cc2-c2ccc(F)c(-c3cnn(CCO)c3)c2)n1 [small molecule ALK5 inhibitor, 4-[2-Fluoro-5-[3-(6-methyl-2-pyridinyl)-1H-pyrazol-4-yl]phenyl]-1H-pyrazole-1-ethanol, reference compound]
- lung Col1a1 expression vs DMSO vehicle control slices (lung Col1a1 expression [3]): substantial, statistically significant (p<0.0001 vs vehicle) decrease
- lung Col1a1 expression, normalized to DMSO control slices (COL1A1 expression; 3 days, 3G9 ≥400 ng/mL, Compound 5 179 nM, ALK5 inhibitor 1 μM): decrease in lung Col1a1 expression
- lung Col1a1 expression, normalized to DMSO control slices (lung Col1a1 expression [6]): greatest decrease
- Type I Collagen gene Col1a1 expression, normalized to DMSO control slices [5]: greatest decrease
